We go through 8 molecules from US9862721B2, “Tetrahydrocarboline derivative” (ONO PHARMACEUTICAL CO., LTD., priority 2011, dated 2018).

The structures appear in SMILES notation.

One data set has as its target human ENPP2 (Homo sapiens (Human), UniProt Q13822). The data set is described as follows: Measurement of human ENPP2 inhibitory activity. The following applies: human ENPP2, 16:0-LPC substrate, read-out: ENPP2 inhibitory activity rate (%). Format: biochemical. Here is the method:
10 μL of a test compound solution (10% dimethyl sulfoxide) at each concentration and 40 μL of a 5 μg/mL human ENPP2 solution (buffer A: 100 mmol/L Tris-HCl (pH 9.0), 500 mmol/L NaCl, 5 mmol/L MgCl2, 0.05% Triton X-100) were mixed, 50 μL of a 2 mmol/L 16:0-lysophosphatidylcholine (LPC) solution (buffer A) was further added to react at 37° C. for 24 hours. Subsequently, to 10 μL of the reaction solution was added 90 μL of a measurement buffer (0.5 mmol/L aminoantipyrine, 0.3 mmol/L N-ethyl-N-(2-hydroxy-3-sulfopropyl)-3-methylaniline, 1 U/mL peroxidase, 3 U/mL choline oxidase, 100 mmol/L Tris-HCl (pH 8.5), 5 mmol/L CaCl2) to react at 37° C. for 20 minutes, and spectrophotometric determination was performed at 555 nm.
Using a standard curve, a choline production amount (enzyme activity) in each test compound was calculated, and the inhibitory activity rate of each test compound was calculated, wherein the enzyme activity in a positive control to which a test compound is not added, was a 0% inhibition rate, and the enzyme activity in a negative control to which a test compound and human ENPP2 are not added, were 100% inhibition. Further, concerning the present compounds shown in Table 3, an IC50 value was calculated from inhibitory activity rate at each concentration.

Data set [1] relates to Crl:CD (Sprague-Dawley) male rat. Nature of the data set: Measurement of blood pressure and heart rate in rat under wakefulness. Format: in vivo. The following applies: conscious rat, forced oral administration, 100, 300 mg/kg, up to 180 minutes. Here is the method:
A Cr1:CD (Sparague-Dawley) male rat (Charles River Laboratories Japan, Inc., 8 weeks old) was anesthetized by inhalation of isoflurane. A catheter (INTRAMEDIC POLYETHYLENE Tubing PE50, CLAY ADAMS) was inserted and indwelled in a femoral artery and another end was exposed from dorsal skin. The rat was placed in a rearing cage for blood pressure measurement. After elapse of 2 hours or more from the insertion of the catheter, each of the compound of Reference Example 2 and the compound of Example 6(72) (dose: 100, 300 mg/kg) was forcedly orally administered, and blood pressure was measured under no anesthesia and no restraint. The blood pressure was measured by connecting the catheter inserted in the femoral artery and a blood pressure transducer (DX-360, Nihon Kohden Corporation) and passing through an amplifier for blood pressure measurement (Coupler.Amplifier PP-101H.AP-101H, Nihon Kohden Corporation). Blood pressure signals were captured into a data acquisition analysis system (HEM 3.5, NOTOCORD SYSTEM S.A.) through a polygraph system (PEG-1000, Nihon Kohden Corporation) to measure blood pressure (systolic pressure, diastolic pressure, mean blood pressure) and heart rate (measured from blood pressure pulse wave). […] The data were accumulated as measured values at respective time points and % variation values in which each value before administration was taken as 100.

For the molecule `O=C(C[C@H]1CC[C@H](C(=O)O)CC1)N1CCc2c(n(Cc3ccc(C(F)(F)F)s3)c3ncccc23)C1` [Example 6(16), trans-4-[2-oxo-2-(9-{[5-(trifluoromethyl)-2-thienyl]methyl}-5,6,8,9-tetrahydro-7H-pyrido[4′,3′:4,5]pyrrolo[2,3-b]pyridin-7-yl)ethyl]cyclohexanecarboxylic acid], the inhibition at 1 µM on human ENPP2 is 99%.
Turning to `O=C(C[C@H]1CC[C@H](C(=O)O)CC1)N1CCc2c(n(Cc3ccc(F)cc3F)c3ncccc23)C1` [Reference Example 2, trans-4-{2-[9-(2,4-difluorobenzyl)-5,6,8,9-tetrahydro-7H-pyrido[4′,3′:4,5]pyrrolo[2,3-b]pyridin-7-yl}-2-oxoethyl}cyclohexanecarboxylic acid, reference compound], the “influence on a circulatory organ (blood pressure, heart rate)” value in data set [1] is “An influence of the compound of Reference Example 2 on a circulatory organ was observed”.
Regarding `O=C(C[C@H]1CC[C@H](C(=O)O)CC1)N1CCc2c(n(Cc3csc(C(F)(F)F)c3)c3ncccc23)C1` [Example 6(13), trans-4-[2-oxo-2-(9-{[5-(trifluoromethyl)-3-thienyl]methyl}-5,6,8,9-tetrahydro-7H-pyrido[4′,3′:4,5]pyrrolo[2,3-b]pyridin-7-yl)ethyl]cyclohexanecarboxylic acid], at human ENPP2, the inhibition at 1 µM is 99.2%.
Consider `CC1(C(=O)O)CCN(CC(=O)N2CCc3c(n(Cc4ccc(C(F)(F)F)s4)c4ncccc34)C2)CC1` [Example 7(39), 4-methyl-1-[2-oxo-2-(9-{[5-(trifluoromethyl)-2-thienyl]methyl}-5,6,8,9-tetrahydro-7H-pyrido[4′,3′:4,5]pyrrolo[2,3-b]pyridin-7-yl)ethyl]-4-piperidinecarboxylic acid], for which the inhibition at 1 µM at human ENPP2 came out at 99.5%.
For the molecule `CCc1cccc(Cn2c3c(c4cccnc42)CCN(C(=O)CC24CCC(C(=O)O)(CC2)C4)C3)c1` [Example 6(72), 4-{2-[9-(3-ethylbenzyl)-5,6,8,9-tetrahydro-7H-pyrido[4′,3′:4,5]pyrrolo[2,3-b]pyridin-7-yl]-2-oxoethyl}bicyclo[2.2.1]heptane-1-carboxylic acid], the inhibition at 1 µM on human ENPP2 came out at 99.3%. In addition, the “influence on a circulatory organ (blood pressure, heart rate)” value in data set [1] is on record as “no influence”.
For `C[C@]1(C(=O)O)CC[C@H](CC(=O)N2CCc3c(n(Cc4cnc(C(F)(F)F)s4)c4ncccc34)C2)CC1` [Example 10(5), trans-1-methyl-4-[2-oxo-2-(9-{[2-(trifluoromethyl)-1,3-thiazol-5-yl]methyl}-5,6,8,9-tetrahydro-7H-pyrido[4′,3′:4,5]pyrrolo[2,3-b]pyridin-7-yl)ethyl]cyclohexanecarboxylic acid], at human ENPP2, the inhibition at 1 µM came out at 97.4%.
Same read-out and setting: with `O=C(CC12CCC(C(=O)O)(CC1)C2)N1CCc2c(n(Cc3ccc(C(F)(F)F)cc3)c3ncccc23)C1` [Example 6(68), 4-(2-oxo-2-{9-[4-(trifluoromethyl)benzyl]-5,6,8,9-tetrahydro-7H-pyrido[4′,3′:4,5]pyrrolo[2,3-b]pyridin-7-yl}ethyl)bicyclo[2.2.1]heptane-1-carboxylic acid] the figure was 99.2%; with `CC1(C)[C@@H](CC(=O)N2CCc3c(n(Cc4cnc(C(F)(F)F)s4)c4ccccc34)C2)CC[C@@]1(C)C(=O)O` [Example 6(49), (1R,3R)-1,2,2-trimethyl-3-[2-oxo-2-(9-{[2-(trifluoromethyl)-1,3-thiazol-5-yl]methyl}-1,3,4,9-tetrahydro-2H-beta-carbolin-2-yl)ethyl]cyclopentanecarboxylic acid], 99.1%.
